As a reminder, the Ki is the dissociation constant of the complex between target and ligand, obtained from inhibition or displacement.

Data set [1] addresses T1, human sphingosine kinase type 1 (hSPHK1) (Homo sapiens, UniProt Q9NYA1).
T1 construct: made in house; host or cells: Sf9 insect cells (baculovirus)
Description: Sphingosine kinase assay, recombinant human SPHK1 ([32P]S1P product, scintillation counting). It counts as biochemical. The note with it: read-out: activity hSPHK1 (range estimates of KI values). Here is the method:
(§1) Recombinant baculovirus encoding human sphingosine kinase type 1 (SPHK1) was used to infect Sf9 insect cells and after 2-5 days, cleared lysates were prepared and used without further purification. Human SPHK2, which was partially purified from baculovirus-infected Sf9 cell lysates, was purchased from a commercial source. Sphingosine kinase assays were performed using standard protocols. Product [^32P]S1P was recovered by binding to cation exchange paper and quantified by scintillation counting.

Data set [2] addresses T2, human sphingosine kinase type 2 (hSPHK2) (Homo sapiens, UniProt Q9NRA0).
T2 construct: purchased; host or cells: Sf9 insect cells (baculovirus)
T2 sequence (Q9NRA0 1-654): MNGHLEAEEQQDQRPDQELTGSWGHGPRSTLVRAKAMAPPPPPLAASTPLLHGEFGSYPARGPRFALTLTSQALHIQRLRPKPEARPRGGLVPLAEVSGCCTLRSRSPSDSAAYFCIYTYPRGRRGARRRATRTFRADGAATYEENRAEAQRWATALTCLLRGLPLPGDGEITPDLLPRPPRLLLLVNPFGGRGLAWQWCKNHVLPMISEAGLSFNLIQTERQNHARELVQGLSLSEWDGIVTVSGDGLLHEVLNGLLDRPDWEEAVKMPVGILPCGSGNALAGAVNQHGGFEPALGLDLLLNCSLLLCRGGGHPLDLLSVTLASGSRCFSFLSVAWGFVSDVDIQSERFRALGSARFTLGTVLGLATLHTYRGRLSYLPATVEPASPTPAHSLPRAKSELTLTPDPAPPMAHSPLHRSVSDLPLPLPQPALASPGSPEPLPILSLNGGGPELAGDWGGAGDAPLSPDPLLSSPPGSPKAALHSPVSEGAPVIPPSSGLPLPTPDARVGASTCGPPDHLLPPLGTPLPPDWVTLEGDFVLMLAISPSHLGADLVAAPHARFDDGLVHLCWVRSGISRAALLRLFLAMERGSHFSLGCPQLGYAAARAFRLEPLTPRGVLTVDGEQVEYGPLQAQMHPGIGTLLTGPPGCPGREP
Kind of data set: Sphingosine kinase assay, recombinant human SPHK2 ([32P]S1P product, scintillation counting). It counts as biochemical. Particulars: read-out: activity hSPHK2 (range estimates of KI values). As for the experimental part: as §1

The conditions of data set [3]: patients, 1-yr trial; cited from earlier work.
For data set [4], the system named is sphingosine kinase type 2 (SphK2). Kind of data set: Blood sphingosine 1-phosphate (S1P) in mice after oral dosing, LC-MS-MS. The data set is classed as in vivo. The note with it: C57Bl/6 mice, oral gavage 20 mg/kg, blood drawn immediately, at 2 h, 6 and 24 h, FIG. 1A. As for the experimental part:
FIGS. 1A-1B. Four C57Bl/6 mice were dosed by oral gavage with 20 mg/kg of Compound 6. At the indicated times, blood was drawn, whole prepared for analysis, and the amount sphingosine 1-phosphate (S1P) was quantified by LC-MS-MS (FIG. 1A). The rise in S1P is indicative of inhibition of sphingosine kinase type 2 (SphK2).
Four C57Bl/6 mice were dosed by oral gavage with 20 mg/kg of Compound 6 (Example 113). Blood was drawn immediately, at 2h, 6, and 24 h after administration, whole prepared for analysis, and the amount of sphingosine 1-phosphate (S1P) was quantified by LC-MS-MS, as shown in FIG. 1A.

T1 sequence (Q9NYA1 whole entry): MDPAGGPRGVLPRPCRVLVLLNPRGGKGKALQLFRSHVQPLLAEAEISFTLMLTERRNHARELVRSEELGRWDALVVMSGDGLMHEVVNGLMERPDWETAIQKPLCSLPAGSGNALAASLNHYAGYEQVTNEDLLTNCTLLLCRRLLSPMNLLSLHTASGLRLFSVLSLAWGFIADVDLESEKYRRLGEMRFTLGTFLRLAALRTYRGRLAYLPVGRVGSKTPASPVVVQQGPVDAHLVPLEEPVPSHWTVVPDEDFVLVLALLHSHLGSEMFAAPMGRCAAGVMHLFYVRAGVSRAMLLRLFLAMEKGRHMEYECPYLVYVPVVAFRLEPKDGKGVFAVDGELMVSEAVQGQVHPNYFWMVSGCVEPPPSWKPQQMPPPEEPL

As to `C=COCc1ccc(-c2noc([C@@H]3CCCN3C(=N)N)n2)cc1C(F)(F)F` [Compound 77A], the inhibitory constant (Ki) in data set [1] and in data set [2] was greater than 10 µM throughout. As for `CCCCCCCCOc1ccc(-c2noc([C@@H]3[C@@H](O)CCN3C(=N)N)n2)cc1C(F)(F)F` [Compound 6A, amino((2S,3S)-3-hydroxy-2-(3-(4-(octyloxy)-3-(trifluoromethyl)phenyl)-1,2,4-oxadiazol-5-yl)pyrrolidin-1-yl)methaniminium chloride], in data set [2], the Ki was less than 1 µM.

In the case of `CCCCCCCCCn1ccc2cc(-c3noc([C@@H]4CCCN4C(=N)N)n3)ccc21` [Compound 17A, (S)-amino(2-(3-(1-nonyl-1H-indol-5-yl)-1,2,4-oxadiazol-5-yl)pyrrolidin-1-yl)methaniminium chloride], the inhibition constant (Ki) in data set [2] is less than 1 µM. Consider `CCCCCCCCc1ccc(CCC(N)(CO)CO)cc1` [fingolimod, 2-amino-2-[2-(4-octylphenyl)ethyl] propane 1,3-diol], for which the “hypertension (blood pressure rise)” value in data set [3] is 2-3 mmHg. On to `CCCCCCCCOc1ccc(-c2noc([C@@H]3[C@@H](O)CCN3/C(N)=N/O)n2)cc1C(F)(F)F` [Compound 6, (2S,3S)—N,3-dihydroxy-2-(3-(4-(octyloxy)-3-(trifluoromethyl)phenyl)-1,2,4-oxadiazol-5-yl)pyrrolidine-1-carboximidamide], for which the “amount of sphingosine 1-phosphate (S1P) in blood” value in data set [4] is given as “rise in S1P”.

Source of the values: US12234229B2, “Sphingosine kinase inhibitor amidoxime prodrugs” (University of Virginia Patent Foundation, priority 2016, dated 2025).
